This note sets out measurements from patent US20250145610A1, “CRYSTALLINE FORM OF ISAVUCONAZONIUM SULFATE AND A PROCESS FOR ITS PREPARATION” (Glenmark Life Sciences Limited, priority 2022, published 2025).

The series can be described thus: Stability study of crystalline vs amorphous isavuconazonium sulfate: impurity content by HPLC after storage. Type of series: physicochemical. To be noted: for Impurity Compound IV content / Impurity Compound IX content / Impurity Compound VI content / Impurity Compound VII content / Impurity Compound VIII content / Impurity Compound X content: HPLC; for Storage stability (in words): 3 months at −20° C. and 2° to 8° C. The procedure:
High performance liquid chromatography (HPLC) was performed with the conditions described below for detecting chemical purity:
Column: Xterra MS C18, 150×4.6 mm, 3.5μ; Column Temperature: 45° C., Mobile phase: Mobile Phase A; 0.1% Perchloric acid in water: Mobile Phase B=Methanol
Diluent: Methanol: 0.3% Sodium bisulphate (70:30 v/v); Flow Rate: 1.0 mL/Minutes, Detection: 260 nm; Injection Volume: 20 μL.
Comparative stability data was generated for crystalline isavuconazonium sulfate (Form GL-1) and the amorphous form of isavuconazonium sulfate (prepared as described in Comparative Example 1) stored at a temperature of −20° C. and from 2° to 8° C. for three (3) months (i.e., 12 weeks). In particular, the crystalline isavuconazonium sulfate (Form GL-1) obtained as per Example 3 and the amorphous form of isavuconazonium sulfate of Comparative Example 1 were taken in an appropriate amount, and packed in a transparent polyethylene bag. The bag was sealed under vacuum and then enclosed in a black LDPE (Low-density polyethylene) bag which in turn is kept in triple laminated aluminium pouches sealed at three sides. The fourth side of the bag is then sealed under vacuum and kept in a HDPE (High-density polyethylene) container, and stored at −20° C. and from 2° to 8° C. for 3 months (i.e., 12 weeks). Both materials were analyzed after 3 months of storage by the HPLC method described above.

Setting [1] is: 3 Month at 2°-8° C., monosulfate salt.
The mark [2] stands for this setting: 3 Month at −20° C., monosulfate salt.

Counter-ions that a name gives are not always drawn. Where only a bound is given, the exact number is not on record here.

In the case of `CNCC(=O)OCc1cccnc1N(C)C(=O)OC(C)n1cn[n+](C[C@](O)(c2cc(F)ccc2F)[C@@H](C)c2nc(-c3ccc(C#N)cc3)cs2)c1` (stereo partly drawn) [Amorphous isavuconazonium sulfate prepared as per comparativ] [(2-{[(1-{1-[(2R,3R)-3-[4-(4-cyanophenyl)-1,3-thiazol-2-yl]-2-(2,5-difluorophenyl)-2-hydroxybutyl]-1H-1,2,4-triazol-4-ium-4-yl}ethoxy)carbonyl](methyl)amino}pyridin-3-yl)methyl-N-methylglycinate monosulfate salt, reference compound], under setting [1], the “Impurity Compound IV content” value is on record as 0.76%, the “Impurity Compound IX content” value stood at 2.5%, the “Impurity Compound VI content” value amounted to 0.33% and the “Impurity Compound VII content” value was found to be 0.12%. For the same compound, under setting [1], the “Impurity Compound VIII content” value is 0.44% and the “Impurity Compound X content” value is 0.04%. Under setting [2], the “Impurity Compound IV content” value was found to be 0.41%, the “Impurity Compound IX content” value was determined as 1.26%, the “Impurity Compound VI content” value turned out to be 0.10% and the “Impurity Compound VII content” value amounted to 0.12%. For the same compound, under setting [2], the “Impurity Compound VIII content” value came out at 0.44% and the “Impurity Compound X content” value is on record as 0.03%. Under “Initial, monosulfate salt”, the “Impurity Compound IV content” value is recorded as 0.21%, the “Impurity Compound IX content” value was found to be 0.51%, the “Impurity Compound VI content” value was determined as 0.04% and the “Impurity Compound VII content” value was 0.12%. For the setting “Initial, monosulfate salt”, the “Impurity Compound VIII content” value was 0.44% and the “Impurity Compound X content” value turned out to be 0.03%. Where the note is “generates impurities of formulae IV, VI, VII, VIII, IX, X and XI”, the “Stability of the solid form (in words)” value is recorded as “unstable”.

In the case of `CNCC(=O)OCc1cccnc1N(C)C(=O)OC(C)n1cn[n+](C[C@](O)(c2cc(F)ccc2F)[C@@H](C)c2nc(-c3ccc(C#N)cc3)cs2)c1` (stereo partly drawn) [Crystalline isavuconazonium sulfate (Form GL-1) of Example 3] [(2-{[(1-{1-[(2R,3R)-3-[4-(4-cyanophenyl)-1,3-thiazol-2-yl]-2-(2,5-difluorophenyl)-2-hydroxybutyl]-1H-1,2,4-triazol-4-ium-4-yl}ethoxy)carbonyl](methyl)amino}pyridin-3-yl)methyl-N-methylglycinate monosulfate salt], under setting [1], the “Impurity Compound IV content” value was 0.07%, the “Impurity Compound IX content” value worked out at 0.13%, the “Impurity Compound VI content” value came out at 0.03% and the “Impurity Compound VII content” value stood at 0.08%. Further, under setting [1], the “Impurity Compound VIII content” value was found to be 0.02% and the “Impurity Compound X content” value amounted to 0.07%. Besides, under setting [2], the “Impurity Compound IV content” value is 0.05%, the “Impurity Compound IX content” value was 0.09%, the “Impurity Compound VI content” value is on record as 0.02% and the “Impurity Compound VII content” value is given as 0.08%. Under setting [2], the “Impurity Compound VIII content” value is 0.03% and the “Impurity Compound X content” value turned out to be 0.08%. For the same compound, the “Storage stability (in words)” value (listed as Form GL-1, monosulfate salt) is recorded as “more stable compared to the amorphous form of isavuconazonium sulfate”. For the same compound, the “Storage stability (in words)” value (listed as crystalline isavuconazonium sulfate (Form GL-1), monosulfate salt) is “stable at 3 months”. Besides, under “Initial, monosulfate salt”, the “Impurity Compound IV content” value was 0.03%, the “Impurity Compound IX content” value is on record as 0.09%, the “Impurity Compound VI content” value is 0.01% and the “Impurity Compound VII content” value was 0.08%. Also, where the note is “Initial, monosulfate salt”, the “Impurity Compound VIII content” value came to 0.03% and the “Impurity Compound X content” value was found to be 0.05%. Also, the “Period over which stability is maintained” value (stored at −20° C. and 2° to 8° C., sealed under vacuum) is listed as at least 3 months.
